Test results reported in patent publication US10259810B2, “N-sulfonylated pyrazolo[3,4-b]pyridin-6-carboxamides and method of use” (AbbVie S.à.r.l., priority 2015, dated 2019).

What was measured:
Assay type in all cases: cell-based
[1] = biological target: T1, ΔF508-CFTR (Homo sapiens, UniProt P13569, DEL508-508); experiment: CFTR cell surface levels using HRP-tagged ΔF508-CFTR expressing CFBE cells, in the presence of a co-corrector; conditions: HRP-tagged ΔF508-CFTR CFBE cells, in the presence of 3 μM co-corrector; for EC50: read-out: EC50
T1 construct: host or cells: CFBE41o-, doxycycline-inducible
Procedure, shortened: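 Chemiluminescent read-out of surface HRP (15 min, dark) after PBS washes. Activity is normalized as 100×(sample−DMSO)/(3 μM co-corrector alone−DMSO).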

[2] = biological target: T2, CFTR ΔF508 (Homo sapiens, UniProt P13569, DEL508-508); experiment: Chronic TECC assay, primary bronchial epithelial cells of CF patients homozygous for CFTR ΔF508 (corrector, co-corrector and potentiator); conditions: chronic TECC, AUC = full area under the curve upon forskolin stimulation; for % Activity at 1 μM (AUC**): test compound at 1 μM; for EC50: read-out: EC50 (nM) (AUC**)
T2 construct: bronchial epithelial cells isolated from CF patients homozygous for the CFTR ΔF508 mutation; McGill University; Asterand; University of North Carolina hAEC-CF; host or cells: primary human bronchial epithelial cells from CF patients homozygous for ΔF508, differentiated at air-liquid interface
Procedure, shortened: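 Primary bronchial epithelial cells from ΔF508-homozygous CF patients on collagen IV-coated Transwells were chronically treated with test compound plus corrector and potentiator, which were re-added before recording. Ieq was derived from PD and Rt in NaCl-Ringer, pH 7.4, at 37° C, with apical amiloride and bilateral forskolin, recorded every 2 min over 20 min. Ieq increase was normalized to controls, and EC50 was taken from per-well concentrations.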

[3] = biological target: T1, ΔF508-CFTR; experiment: CFTR cell surface levels using HRP-tagged ΔF508-CFTR expressing CFBE cells, intrinsic corrector capacity; design: % Activation: concentration or dose not given beside the values; conditions: HRP-tagged ΔF508-CFTR expressing CFBE41o- cells, compound alone (intrinsic corrector capacity), 20 hours at 33° C.; for EC50: read-out: EC50
Procedure, shortened: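 Surface ΔF508-CFTR was measured as HRP chemiluminescence from an extracellular-loop-4 tag, expressed as percent activity between DMSO and a […] corrector control.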

T2 sequence (P13569 with tags, fused parts or gaps DEL508-508): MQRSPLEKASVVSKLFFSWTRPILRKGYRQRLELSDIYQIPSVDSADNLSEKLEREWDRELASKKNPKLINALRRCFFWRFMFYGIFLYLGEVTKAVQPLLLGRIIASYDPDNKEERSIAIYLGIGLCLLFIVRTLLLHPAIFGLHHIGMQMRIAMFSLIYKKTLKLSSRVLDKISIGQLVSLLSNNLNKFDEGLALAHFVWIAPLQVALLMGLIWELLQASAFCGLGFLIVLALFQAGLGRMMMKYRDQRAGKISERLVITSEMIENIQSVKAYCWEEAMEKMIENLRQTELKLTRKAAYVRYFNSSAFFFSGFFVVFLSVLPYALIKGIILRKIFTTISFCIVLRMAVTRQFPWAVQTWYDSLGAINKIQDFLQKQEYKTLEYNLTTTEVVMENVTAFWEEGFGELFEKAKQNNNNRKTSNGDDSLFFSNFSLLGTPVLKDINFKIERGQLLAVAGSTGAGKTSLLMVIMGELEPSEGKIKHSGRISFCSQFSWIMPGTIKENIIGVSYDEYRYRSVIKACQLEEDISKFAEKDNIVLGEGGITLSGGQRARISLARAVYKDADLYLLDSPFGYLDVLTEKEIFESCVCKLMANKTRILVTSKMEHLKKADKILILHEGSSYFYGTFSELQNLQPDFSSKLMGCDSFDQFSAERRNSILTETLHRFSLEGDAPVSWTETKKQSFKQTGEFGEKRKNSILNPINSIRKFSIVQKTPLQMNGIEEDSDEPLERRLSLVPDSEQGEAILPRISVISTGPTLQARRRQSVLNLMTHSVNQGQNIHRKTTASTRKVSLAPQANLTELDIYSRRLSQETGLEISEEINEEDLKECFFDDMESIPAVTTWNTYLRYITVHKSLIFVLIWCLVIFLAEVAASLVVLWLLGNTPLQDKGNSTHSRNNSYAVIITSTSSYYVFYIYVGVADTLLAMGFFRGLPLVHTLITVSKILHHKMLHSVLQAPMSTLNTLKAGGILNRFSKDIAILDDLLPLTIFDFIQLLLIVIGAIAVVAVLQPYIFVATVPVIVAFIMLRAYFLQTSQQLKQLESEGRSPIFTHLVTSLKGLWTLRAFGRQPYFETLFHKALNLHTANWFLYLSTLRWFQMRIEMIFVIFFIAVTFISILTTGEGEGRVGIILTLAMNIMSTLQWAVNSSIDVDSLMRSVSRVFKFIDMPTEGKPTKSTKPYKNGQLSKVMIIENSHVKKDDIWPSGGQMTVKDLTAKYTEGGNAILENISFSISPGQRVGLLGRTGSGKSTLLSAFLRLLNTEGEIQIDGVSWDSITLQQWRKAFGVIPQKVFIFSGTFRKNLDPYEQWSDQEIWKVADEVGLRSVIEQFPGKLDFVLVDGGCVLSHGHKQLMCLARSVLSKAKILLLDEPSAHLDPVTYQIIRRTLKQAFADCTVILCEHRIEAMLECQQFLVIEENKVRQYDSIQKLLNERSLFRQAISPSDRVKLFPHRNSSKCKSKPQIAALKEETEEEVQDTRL
T1 sequence (P13569 with tags, fused parts or gaps DEL508-508): as above

Compound	% Activation [1] [%]	EC50 [1] [nM]	% Activity at 1 μM (AUC**) [2] [%]	% Activation [3] [%]	EC50 [3] [nM]	EC50 [2] [nM]
COCCN(CCOC)c1ccc(-c2cc(C(=O)NS(C)(=O)=O)nc3c2c(C(C)C)nn3-c2ccnc(N3CCOCC3)c2)cn1 [Compound 252, 4-{6-[bis(2-methoxyethyl)amino]pyridin-3-yl}-N-(methanesulfonyl)-1-[2-(morpholin-4-yl)pyridin-4-yl]-3-(propan-2-yl)-1H-pyrazolo[3,4-b]pyridine-6-carboxamide]	310.75	1690	248.51	115.2	396	
COCCS(=O)(=O)NC(=O)c1cc(N2CCC(COC)CC2)c2c(C(C)C)nn(CC3CCC3)c2n1 [Compound 263, 1-(cyclobutylmethyl)-N-(2-methoxyethanesulfonyl)-4-[4-(methoxymethyl)piperidin-1-yl]-3-(propan-2-yl)-1H-pyrazolo[3,4-b]pyridine-6-carboxamide]	475.45	404	399.85	260.1	445	77
COCC1CCN(c2cc(C(=O)NS(=O)(=O)CCN3CCOCC3)nc3c2c(C2CCC2)nn3-c2ccccc2)CC1 [Compound 267, 3-cyclobutyl-4-[4-(methoxymethyl)piperidin-1-yl]-N-[2-(morpholin-4-yl)ethanesulfonyl]-1-phenyl-1H-pyrazolo[3,4-b]pyridine-6-carboxamide]	433	57.1		274.8	172	130
COCCS(=O)(=O)NC(=O)c1cc(OCC2(C)COC2)c2c(C3CCC3)nn(-c3ccccc3)c2n1 [Compound 269, 3-cyclobutyl-N-(2-methoxyethanesulfonyl)-4-[(3-methyloxetan-3-yl)methoxy]-1-phenyl-1H-pyrazolo[3,4-b]pyridine-6-carboxamide]	275.45	97.2	172.35	120.6	246	
CC(C)N1CCN(c2cc(C(=O)NS(C)(=O)=O)nc3c2c(C2CCC2)nn3-c2ccccc2)CC1 [Compound 270, 3-cyclobutyl-N-(methanesulfonyl)-1-phenyl-4-[4-(propan-2-yl)piperazin-1-yl]-1H-pyrazolo[3,4-b]pyridine-6-carboxamide]	327.9	731	250	161.5	1490	297
COCC1CCN(c2cc(C(=O)NS(=O)(=O)CCCN3CCOCC3)nc3c2c(C(C)C)nn3-c2ccc(F)cc2)CC1 [Compound 272, 1-(4-fluorophenyl)-4-[4-(methoxymethyl)piperidin-1-yl]-N-[3-(morpholin-4-yl)propane-1-sulfonyl]-3-(propan-2-yl)-1H-pyrazolo[3,4-b]pyridine-6-carboxamide]	451.2	43.3	285.35	268.2	96.5	
COCC1CCN(c2cc(C(=O)NS(=O)(=O)CCN(C)C)nc3c2c(C2CCC2)nn3-c2ccccc2)CC1 [Compound 273, 3-cyclobutyl-N-[2-(dimethylamino)ethanesulfonyl]-4-[4-(methoxymethyl)piperidin-1-yl]-1-phenyl-1H-pyrazolo[3,4-b]pyridine-6-carboxamide]	344.05	111	197.06	182.4	562	
CC(=O)N1CCC(F)(COc2cc(C(=O)NS(C)(=O)=O)nc3c2c(C2CCC2)nn3-c2ccccc2)CC1 [Compound 274, 4-[(1-acetyl-4-fluoropiperidin-4-yl)methoxy]-3-cyclobutyl-N-(methanesulfonyl)-1-phenyl-1H-pyrazolo[3,4-b]pyridine-6-carboxamide]	300	398	224.99	159.05	842	> 300
